This note sets out measurements from patent US20240201191A1, “CITRULLINATED PROTEINS AS BIOMARKERS AND THERAPY TARGETS FOR CANCER” (BOARD OF REGENTS, THE UNIVERSITY OF TEXAS SYSTEM, priority 2022, published 2024).

Square brackets hold non-standard residues; d marks the D form. Ends that are not written are not given here. Cit = NC(=O)NCCC[C@H](N)C(=O)O

For assay [1], the system named is B cell-mediated IgG secretion. In words: ELISpot IgG assay. It is filed as cell-based. To be noted: compared to media. The source says: (§1) Using ELISpot assays, we tested the unmodified and citrullinated forms of three pairs of synthesized ENO1 peptides predicted as having high MHC-II binding affinity and assessed B cell-mediated IgG and T cell-mediated IFNγ secretion (Table 9).

The test system of assay [2] is T cell-mediated IFNγ secretion. In words: ELISpot IFNγ assay. The format is cell-based. To be noted: compared to media.
Source text: as §1

Consider “AMQEFMILPVGASSFR*EAMR*GA (AMQEFMILPVGASSF[Cit]EAM[Cit]GA) [citrullinated peptide-2, citrullinated synthesized ENO1 peptide, R16(Cit.), R20(Cit.)]”, for which, in assay [1], the “B cell-mediated IgG response (ELISpot)” value is reported as “elicited a potent IgG response”.

Take “R*AAVPSGASTGIYEALELR*DNDKTR* (RAAVPSGASTGIYEALELRDNDKTR; citrullinated arginines; MOD_RES (1)..(1) Citrullinated Arginine; MOD_RES (19)..(19) Citrullinated Arginine; MOD_RES (25)..(25) Citrullinated Arginine) [citrullinated peptide-1, citrullinated synthesized ENO1 peptide, position 32-56]”: the “B cell-mediated IgG response (ELISpot)” value in assay [1] is “elicited a potent IgG response”. Also, the “T cell-mediated IFNγ secretion (ELISpot)” value in assay [2] is recorded as “modest increase in IFNg secretion”; in assay [2] (listed as citrullinated peptide 1), “higher amount of INFγ response”.
